Experimental data published in the CheMixHub viscosity set.

Test: xn = mol fraction of the nth substance listed

CC(CCO)CC(C)(C)C (stereo not drawn) + CCOC(C)=O
viscosity [mPa·s], 101.33 kPa
Conditions	x2 = 0.1539	x2 = 0.2904	x2 = 0.4122	x2 = 0.5219	x2 = 0.6208	x2 = 0.7106	x2 = 0.7925	x2 = 0.8677	x2 = 0.9364
298.15 K	5.471	3.367	2.072	1.443	1.075	0.879	0.672	0.514	0.486
303.15 K	4.696	2.968	1.837	1.305	0.975	0.789	0.631	0.526	0.475
308.15 K	4.016	2.452	1.646	1.181	0.934	0.724	0.586	0.495	0.439

CC(C)Br + CCO
viscosity [mPa·s], 101 kPa
Conditions	x1 = 0.1	x1 = 0.2	x1 = 0.3	x1 = 0.4	x1 = 0.5	x1 = 0.6	x1 = 0.7	x1 = 0.8	x1 = 0.9
298.15 K	0.9584	0.8399	0.7419	0.6681	0.601	0.546	0.505	0.4811	0.4782
303.15 K	0.8856	0.7784	0.6899	0.6233	0.5616	0.5172	0.4819	0.4653	0.4647
308.15 K	0.8081	0.711	0.6407	0.5773	0.5251	0.4875	0.4624	0.4474	0.4513
313.15 K	0.7913	0.7008	0.6327	0.5668	0.5161	0.4739	0.4489	0.4352	0.4285
318.15 K	0.7206	0.644	0.5803	0.5262	0.4829	0.4499	0.4268	0.4152	0.4137

[Cl-].[Na+] + OCCO
101 kPa, x1 = 0.0588
Conditions	viscosity [mPa·s]
303 K	20.88
313 K	14.11
323 K	9.987

N=C(N)NCCC[C@H](N)C(=O)O + O
viscosity [mPa·s]
Conditions	100 kPa	101 kPa
293.15 K, x1 = 0.00045	1.015	–
293.15 K, x1 = 0.00135	1.038	–
293.15 K, x1 = 0.002247	1.06	–
293.15 K, x1 = 0.002695	1.071	–
293.15 K, x1 = 0.00359	1.094	–
293.15 K, x1 = 0.008927	–	1.295
293.15 K, x1 = 0.01246	–	1.431
298.15 K, x1 = 0.00135	0.9205	–
303.15 K, x1 = 0.00045	0.8065	–
303.15 K, x1 = 0.00135	0.8226	–
303.15 K, x1 = 0.001798	0.8306	–
303.15 K, x1 = 0.002247	0.8385	–
303.15 K, x1 = 0.003143	0.854	–
303.15 K, x1 = 0.00359	0.8618	0.8782
308.15 K, x1 = 0.003143	0.7665	–
313.15 K, x1 = 0.003143	0.6924	–
313.15 K, x1 = 0.005375	–	0.7504
313.15 K, x1 = 0.01246	–	0.9039
318.15 K, x1 = 0.002695	0.6262	–
323.15 K, x1 = 0.0018	–	0.5712
323.15 K, x1 = 0.00359	–	0.597
323.15 K, x1 = 0.005375	–	0.6242
323.15 K, x1 = 0.008927	–	0.6832
323.15 K, x1 = 0.01246	–	0.7455

O=C1CCCC1 + COC(=O)c1ccccc1
viscosity [mPa·s], 101 kPa
Conditions	x2 = 0.0744	x2 = 0.1523	x2 = 0.2344	x2 = 0.3214	x2 = 0.418	x2 = 0.5133	x2 = 0.6186	x2 = 0.737	x2 = 0.8638
303.15 K	1.058	1.115	1.176	1.223	1.284	1.339	1.407	1.481	1.573
313.15 K	0.91	0.946	0.984	1.026	1.071	1.116	1.164	1.218	1.285

C1COCCN1 + NCCO
viscosity [mPa·s], 101 kPa
Conditions	293.15 K	303.15 K	313.15 K	323.15 K
x1 = 0.06557	20.7	–	–	–
x1 = 0.06901	–	–	8.726	–
x1 = 0.07	21.21	13.58	8.71	6.21
x1 = 0.2	14.61	9.65	6.44	4.68
x1 = 0.2273	–	–	6.709	–
x1 = 0.2293	14.65	–	–	–
x1 = 0.4	9.19	6.31	4.57	3.36
x1 = 0.4108	–	–	4.506	–
x1 = 0.4137	9.258	–	–	–
x1 = 0.6	5.53	3.97	2.94	2.24
x1 = 0.616	5.651	–	–	–
x1 = 0.6175	–	–	3.337	–
x1 = 0.8608	3.673	–	–	–
x1 = 0.8622	–	–	2.454	–
x1 = 0.9	3.22	2.54	1.98	1.61

O=[N+]([O-])[O-].O=[N+]([O-])[O-].O=[N+]([O-])[O-].[Nd+3] + O
viscosity [mPa·s], 101.3 kPa
Conditions	x1 = 0.009316	x1 = 0.01807	x1 = 0.02726	x1 = 0.03634	x1 = 0.05266	x1 = 0.06916	x1 = 0.07185
293.15 K	1.299	1.721	2.369	3.383	6.774	14.9	17.16
298.15 K	1.159	1.53	2.106	2.967	5.8	12.34	14.09
308.15 K	0.9433	1.242	1.696	2.353	4.38	8.715	9.848

ClC=C(Cl)Cl + CC#N
Conditions	viscosity [mPa·s]
298.15 K, 101 kPa, x1 = 0.0501	0.358
298.15 K, 101 kPa, x1 = 0.099	0.373
298.15 K, 101 kPa, x1 = 0.2003	0.406
298.15 K, 101 kPa, x1 = 0.3001	0.434
298.15 K, 101 kPa, x1 = 0.3984	0.461
298.15 K, 101 kPa, x1 = 0.4976	0.485
298.15 K, 101 kPa, x1 = 0.5968	0.504
298.15 K, 101 kPa, x1 = 0.7206	0.526
298.15 K, 101 kPa, x1 = 0.7798	0.532
298.15 K, 101 kPa, x1 = 0.9038	0.541
298.15 K, 101 kPa, x2 = 0.0708	0.524
298.15 K, 101 kPa, x2 = 0.1846	0.515
298.15 K, 101 kPa, x2 = 0.3572	0.494
298.15 K, 101 kPa, x2 = 0.4854	0.471
298.15 K, 101 kPa, x2 = 0.5616	0.458
298.15 K, 101 kPa, x2 = 0.6719	0.433
298.15 K, 101 kPa, x2 = 0.775	0.403
298.15 K, 101 kPa, x2 = 0.9121	0.369
303.15 K, 101.32 kPa, x2 = 0.0893	0.5209
303.15 K, 101.32 kPa, x2 = 0.1803	0.5171
303.15 K, 101.32 kPa, x2 = 0.2502	0.5072
303.15 K, 101.32 kPa, x2 = 0.3697	0.4877
303.15 K, 101.32 kPa, x2 = 0.5273	0.4539
303.15 K, 101.32 kPa, x2 = 0.6422	0.4238
303.15 K, 101.32 kPa, x2 = 0.7089	0.4071
303.15 K, 101.32 kPa, x2 = 0.7814	0.3824
303.15 K, 101.32 kPa, x2 = 0.8363	0.3654
303.15 K, 101.32 kPa, x2 = 0.9308	0.3451
308.15 K, 101 kPa, x2 = 0.0708	0.483
308.15 K, 101 kPa, x2 = 0.1846	0.471
308.15 K, 101 kPa, x2 = 0.3572	0.451
308.15 K, 101 kPa, x2 = 0.4854	0.43
308.15 K, 101 kPa, x2 = 0.5616	0.417
308.15 K, 101 kPa, x2 = 0.6719	0.396
308.15 K, 101 kPa, x2 = 0.775	0.37
308.15 K, 101 kPa, x2 = 0.9121	0.341
318.15 K, 101 kPa, x2 = 0.0708	0.443
318.15 K, 101 kPa, x2 = 0.1846	0.431
318.15 K, 101 kPa, x2 = 0.3572	0.413
318.15 K, 101 kPa, x2 = 0.4854	0.393
318.15 K, 101 kPa, x2 = 0.5616	0.384
318.15 K, 101 kPa, x2 = 0.6719	0.364
318.15 K, 101 kPa, x2 = 0.775	0.342
318.15 K, 101 kPa, x2 = 0.9121	0.315
